Data published in PubChem BioAssay AID504610 (National Center for Advancing Translational Sciences (NCATS), 2011).

System: mouse plasma stability, LC-MS/MS, 48 h
Assay: Inhibitors of 12-hLO: Mouse Plasma Stability Profiling
Details: at 2 µM; active compounds read high
Text: Assay Provider: Holman, T.R., University of California, Santa Cruz Grant #: MH08128301 Screening Center PI: Austin, C.P. Screening Center: NIH Chemical Genomics Center [NCGC] Human lipoxygenase 12hLO is a member of the closely related lipoxygenase family of enzymes which catalyze the site-specific oxidation of arachidonic acid to various hormone precursor molecules and as such is a candidate for drug development in a variety of disease areas, such as cancer and inflammation. After qHTS, hits were confirmed in follow-up assays, and leads were optimized through SAR. The resulting lead compound was further characterized through a battery ADME-Tox experiments, and this assay describes its stability in mouse plasma. The stability of the lead compound in […] is tested because this parameter has a significant impact on many ADME-concerned properties of drugs, such as uptake, distribution, transport, and eventually bioavailability.
2microM of compound is incubated in PBS buffer at pH 7; the reference compound is procaine. Compounds are incubated at 37 deg C for the pre-determined time periods and the when aliquots are removed. Samples are analyzed with LC-MS/MS.

## CC(=O)NC(c1cccs1)c1cc(Br)c2cccnc2c1O (stereo unspecified)
  percent remaining: 98.3%
